Assay results taken from ChEMBL document CHEMBL1156968, “2,5-Disubstituted pyridines as potent GPR119 agonists” (Bioorg Med Chem Lett, 2010).
Converted amounts (≈) assume the structure as drawn.

Key:
[1] = molecular target: T1, Glucose-dependent insulinotropic receptor (Homo sapiens, UniProt Q8TDV5); experiment: Agonist activity at human GPR119 receptor expressed in CHO-K1 cells co-transfected with 6CRE-Luc after 5 hrs by luciferase reporter gene assay; type: functional, cell-based
T1 sequence (Q8TDV5 whole entry): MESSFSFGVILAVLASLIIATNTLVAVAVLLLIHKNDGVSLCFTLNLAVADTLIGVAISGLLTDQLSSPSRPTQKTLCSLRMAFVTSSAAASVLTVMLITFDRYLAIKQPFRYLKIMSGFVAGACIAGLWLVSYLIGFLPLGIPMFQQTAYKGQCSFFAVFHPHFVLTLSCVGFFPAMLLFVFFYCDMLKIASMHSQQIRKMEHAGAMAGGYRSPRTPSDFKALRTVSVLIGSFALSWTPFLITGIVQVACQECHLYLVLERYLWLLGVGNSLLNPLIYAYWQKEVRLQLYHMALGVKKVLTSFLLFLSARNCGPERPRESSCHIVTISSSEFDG

[2] = molecular target: T2, Glucose-dependent insulinotropic receptor (Homo sapiens) (UniProt Q8TDV5); experiment: Agonist activity at human GPR119 receptor expressed in CHO-K1 cells co-transfected with 6CRE-Luc after 5 hrs by luciferase reporter gene assay relative to N-(4-(1H-1,2,4-triazol-1-yl)phenyl)-5-nitro-6-(4-(pyridin-2-ylthio)piperidin-1-yl)pyrimidin-4-amine maximal response; type: functional, cell-based
T2 sequence (whole entry): T1 sequence (Q8TDV5 whole entry)

[3] = molecular target: T1, Glucose-dependent insulinotropic receptor; experiment: Agonist activity at human GPR119 receptor by cAMP mobilization assay; type: functional
[4] = AUC (0 to 24) in mouse at 30 mg/kg, po; type: ADME, organism-based; set-up: time < 24 hr, dose 30 mg/kg, route oral; conditions: plasma
[5] = Tmax in mouse at 30 mg/kg, po; type: ADME, organism-based; set-up: dose 30 mg/kg, route oral; conditions: in vivo
[6] = Volume of distribution at steady state in mouse at 3 mg/kg, iv; type: ADME, organism-based; set-up: dose 3 mg/kg, route intravenous; conditions: in vivo, read-out: Vdss
[7] = Half life in mouse at 3 mg/kg, iv; type: ADME, organism-based; set-up: dose 3 mg/kg, route intravenous; conditions: in vivo
[8] = Cmax in mouse at 30 mg/kg, po; type: ADME, organism-based; set-up: dose 30 mg/kg, route oral; conditions: in vivo
[9] = Cmax in mouse at 3 mg/kg, iv; type: ADME, organism-based; set-up: dose 3 mg/kg, route intravenous; conditions: in vivo
[10] = Membrane permeability by PAMPA method; type: ADME; conditions: read-out: permeability
[11] = Tmax in mouse at 3 mg/kg, iv; type: ADME, organism-based; set-up: dose 3 mg/kg, route intravenous; conditions: in vivo
[12] = Solubility in fasted simulated intestinal fluid at pH 6.5; type: physicochemical
[13] = system: Mus musculus; experiment: Clearance in mouse at 3 mg/kg, iv; type: ADME, organism-based; set-up: dose 3 mg/kg, route intravenous; conditions: in vivo
[14] = AUC (0 to 24) in mouse at 3 mg/kg, iv; type: ADME, organism-based; set-up: time < 24 hr, dose 3 mg/kg, route intravenous; conditions: plasma
[15] = Oral bioavailability in mouse at 30 mg/kg; type: ADME, organism-based; conditions: in vivo
[16] = Half life in mouse at 30 mg/kg, po; type: ADME, organism-based; set-up: dose 30 mg/kg, route oral; conditions: in vivo

Row | EC50 [1] | Activity [2] | Structure (SMILES) | other results
1 | > 10000 nM | 16% | CCCS(=O)(=O)N1CCN(c2ccc(OCC3CCN(C(=O)NC4CCCCC4)CC3)cn2)CC1 | 
2 | 1600 nM | 186% | CCCS(=O)(=O)N1CCN(c2ccc(OCC3CCN(C(=O)CC(C)C)CC3)cn2)CC1 | 
3 | > 10000 nM | 41% | CCCS(=O)(=O)N1CCN(c2ccc(OCC3CCN(C(=O)N4CCOCC4)CC3)cn2)CC1 | 
4 | > 10000 nM | < 10% | CC(=O)N1CCN(c2ccc(OCC3CCN(C(=O)OC(C)C)CC3)cn2)CC1 | 
5 |  |  | O=[N+]([O-])c1c(Nc2ccc(-n3cncn3)cc2)ncnc1N1CCC(Sc2ccccn2)CC1 | EC50 [3]: 130 nM
6 | 2100 nM | 93% | CCS(=O)(=O)N1CCN(c2ccc(OC3CCN(C(=O)OC(C)C)CC3)cn2)CC1 | 
7 | 2100 nM | 97% | CCCS(=O)(=O)N1CCN(c2ccc(OCC3CCN(C(=O)C(F)F)CC3)cn2)CC1 | 
8 | 1300 nM | 167% | CCS(=O)(=O)N1CCN(c2ccc(OCC3CCN(C(=O)OC(C)C)CC3)cn2)CC1 | 
9 | 2600 nM | 28% | COCCN1CCN(c2ccc(OCC3CCN(C(=O)OC(C)C)CC3)cn2)CC1 | 
10 | 1800 nM | 69% | CC(C)OC(=O)N1CCC(COc2ccc(N3CCN(S(=O)(=O)c4cccs4)CC3)nc2)CC1 | 
11 | 1200 nM | 69% | CCS(=O)(=O)N1CCN(c2ccc(OCCC3CCN(C(=O)OC(C)C)CC3)cn2)CC1 | 
12 | 300 nM | 178% | COCCS(=O)(=O)N1CCN(c2ccc(OCC3CCN(C(=O)OC(C)C)CC3)cn2)CC1 | 
13 | 900 nM | 67% | CCCS(=O)(=O)N1CCN(c2ccc(OCC3CCN(C(=O)Nc4ccc(C(C)C)cc4)CC3)cn2)CC1 | 
14 | 90 nM | 136% | CC(C)OC(=O)N1CCC(COc2ccc(N3CCN(S(=O)(=O)CC4CCCCC4)CC3)nc2)CC1 | 
15 | 300 nM | 171% | CC(C)OC(=O)N1CCC(COc2ccc(N3CCN(S(=O)(=O)C(C)C)CC3)nc2)CC1 | 
16 | > 10000 nM | 23% | CC(C)OC(=O)N1CCC(COc2ccc(N3CCN(C(=O)N(C)C)CC3)nc2)CC1 | 
17 | 1000 nM | 118% | CC(C)OC(=O)N1CCC(COc2ccc(N3CCN(S(=O)(=O)N4CCCCC4)CC3)nc2)CC1 | 
18 | 2000 nM | 112% | CCCS(=O)(=O)N1CCN(c2ccc(OCC3CCN(C(=O)c4ccco4)CC3)cn2)CC1 | 
19 | 2800 nM | 175% | CCCS(=O)(=O)N1CCN(c2ccc(OCC3CCN(C(=O)CC(C)(C)C)CC3)cn2)CC1 | 
20 | 2000 nM | 100% | CC(C)OC(=O)N1CCC(COc2ccc(N3CCN(S(=O)(=O)c4cccnc4)CC3)nc2)CC1 | 
21 | > 10000 nM | 11% | CC(C)NC(=O)CN1CCN(c2ccc(OCC3CCN(C(=O)OC(C)C)CC3)cn2)CC1 | 
22 | 100 nM | 164% | CCCCS(=O)(=O)N1CCN(c2ccc(OCC3CCN(C(=O)OC(C)C)CC3)cn2)CC1 | 
23 | 200 nM | 165% | CC(C)OC(=O)N1CCC(COc2ccc(N3CCN(S(=O)(=O)C4CCCCC4)CC3)nc2)CC1 | 
24 | 1000 nM | 45% | CCCS(=O)(=O)N1CCN(c2ccc(OCC3CCN(C(=O)NC(C)C)CC3)cn2)CC1 | 
25 | 1900 nM | 112% | CC(C)OC(=O)N1CCC(COc2ccc(N3CCN(C(=O)c4ccco4)CC3)nc2)CC1 | 
26 | 300 nM | 153% | CCCS(=O)(=O)N1CCN(c2ccc(OCC3CCN(C(=O)OC(C)C)CC3)cn2)CC1 | AUC at 24 h [4]: 2350 ng·h/mL; Tmax [5]: 15 min; Vd [6]: 0.76 L/kg; half-life [7]: 37.2 min; Cmax [8]: 3000 ng/mL; Cmax [9]: 3080 ng/mL; Papp [10]: 47 ×10⁻⁶ cm/s; Tmax [11]: 45 min; solubility [12]: 3.41 µg/mL (≈ 7.28 µM); clearance [13]: 15.7 mL/min/kg; AUC at 24 h [14]: 3130 ng·h/mL; bioavailability [15]: 8%; half-life [16]: 24 min
27 | 800 nM | 75% | CCCS(=O)(=O)N1CCN(c2ccc(OCC3CCN(C(=O)NC(C)(C)C)CC3)cn2)CC1 | 
28 | 700 nM | 95% | CCCS(=O)(=O)N1CCN(c2ccc(OCCC3CCN(C(=O)OC(C)C)CC3)cn2)CC1 | 
29 | 1200 nM | 125% | CCN(CC)S(=O)(=O)N1CCN(c2ccc(OCC3CCN(C(=O)OC(C)C)CC3)cn2)CC1 | 
